The values that follow come from US7517884B2 (Kalypsys Inc., priority 1998, dated 2009).

In general, EC50 refers to the concentration that produces a half-maximal response. Read a high EC50 as a need for much substance.

Each structure is given as a SMILES string.

Common to all, as to format: cell-based, murine and human
Common to all, as to conditions: GAL4-PPAR LBD chimera

One experiment has as its target T1, PPAR-alpha (UniProt Q07869).
T1 sequence (Q07869 1-468): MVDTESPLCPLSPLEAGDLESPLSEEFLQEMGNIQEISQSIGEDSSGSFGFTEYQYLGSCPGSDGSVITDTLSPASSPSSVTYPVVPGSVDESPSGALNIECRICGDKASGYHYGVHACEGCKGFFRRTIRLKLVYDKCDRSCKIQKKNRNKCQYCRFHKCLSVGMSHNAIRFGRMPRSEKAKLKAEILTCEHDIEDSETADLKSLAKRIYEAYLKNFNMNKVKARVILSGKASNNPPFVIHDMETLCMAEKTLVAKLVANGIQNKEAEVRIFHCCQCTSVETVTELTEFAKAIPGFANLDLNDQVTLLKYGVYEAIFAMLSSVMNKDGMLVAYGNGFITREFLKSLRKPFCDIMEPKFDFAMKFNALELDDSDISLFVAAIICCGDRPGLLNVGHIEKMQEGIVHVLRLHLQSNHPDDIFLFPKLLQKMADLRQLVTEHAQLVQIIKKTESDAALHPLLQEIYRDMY
In words: PPAR-alpha transactivation assay (GAL4 chimera, luciferase reporter) in CV-1 cells. An excerpt: (§1) Compounds may be screened for functional potency in transient transfection assays in CV-1 cells for their ability to activate the PPAR subtypes (transactivation assay). A previously established chimeric receptor system was utilized to allow comparison of the relative transcriptional activity of the receptor subtypes on the same synthetic response element and to prevent endogenous receptor activation from complicating the interpretation of results. See, for example, Lehmann, J. M.; Moore, L. B.; Smith-Oliver, T. A; Wilkinson, W. O.; Willson, T. M.; Kliewer, S. A., An antidiabetic thiazolidinedione is a high affinity ligand for peroxisome proliferator-activated receptor […], J. Biol. Chem., 1995, 270, 12953-6. The ligand binding domains for murine and human PPAR-alpha, PPAR-gamma, and PPAR-delta are each fused to the yeast transcription factor GAL4 DNA binding domain. CV-1 cells were transiently transfected with expression vectors for the respective PPAR chimera along with a reporter construct containing four or five copies of the GAL4 DNA binding site driving expression of luciferase. After 8-16 h, the cells are replated into multi-well assay plates and the media is exchanged to phenol-red free DME medium supplemented with 5% delipidated calf serum. 4 hours after replating, cells were treated with either compounds or 1% DMSO for 20-24 hours. Luciferase activity was then assayed with Britelite (Perkin Elmer) following the manufacturer's protocol and measured with either the Perkin Elmer Viewlux or Molecular Devices Acquest (see, for example, Kliewer, S. A., et. al. Cell 1995, 83, 813-819). Rosiglitazone is used as a positive control in the PPARγ assay. Wy-14643 and GW7647 are used as positive controls in the PPARα assay. GW501516 is used as the positive control in the PPARδ assay.
(§2) Compounds of Examples 1-141 were assayed to measure their biological activity with respect to their EC50 values for modulating PPAR-alpha, PPAR-gamma, and PPAR-delta as set forth in Table 1.
A general note: Reporter assays use an easily measured gene product as a stand-in for the process of interest.

In another experiment the target is T2, PPAR-delta (UniProt Q03181).
T2 sequence (Q03181 1-441): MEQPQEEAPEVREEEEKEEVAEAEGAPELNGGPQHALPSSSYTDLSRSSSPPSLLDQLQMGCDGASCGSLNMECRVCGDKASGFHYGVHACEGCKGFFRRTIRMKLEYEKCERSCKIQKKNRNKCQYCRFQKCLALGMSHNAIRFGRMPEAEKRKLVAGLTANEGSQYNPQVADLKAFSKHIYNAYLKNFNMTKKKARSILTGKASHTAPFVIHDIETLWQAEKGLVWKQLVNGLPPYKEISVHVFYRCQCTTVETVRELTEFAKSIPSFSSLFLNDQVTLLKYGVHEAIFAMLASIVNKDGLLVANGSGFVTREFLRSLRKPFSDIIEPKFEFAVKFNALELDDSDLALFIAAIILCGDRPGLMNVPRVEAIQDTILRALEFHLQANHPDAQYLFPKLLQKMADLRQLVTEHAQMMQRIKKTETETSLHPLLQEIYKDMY
In words: PPAR-delta transactivation assay (GAL4 chimera, luciferase reporter) in CV-1 cells.
Text: as §1, §2

Another experiment has as its target T3, PPAR-gamma (UniProt P37231).
T3 sequence (P37231 1-505): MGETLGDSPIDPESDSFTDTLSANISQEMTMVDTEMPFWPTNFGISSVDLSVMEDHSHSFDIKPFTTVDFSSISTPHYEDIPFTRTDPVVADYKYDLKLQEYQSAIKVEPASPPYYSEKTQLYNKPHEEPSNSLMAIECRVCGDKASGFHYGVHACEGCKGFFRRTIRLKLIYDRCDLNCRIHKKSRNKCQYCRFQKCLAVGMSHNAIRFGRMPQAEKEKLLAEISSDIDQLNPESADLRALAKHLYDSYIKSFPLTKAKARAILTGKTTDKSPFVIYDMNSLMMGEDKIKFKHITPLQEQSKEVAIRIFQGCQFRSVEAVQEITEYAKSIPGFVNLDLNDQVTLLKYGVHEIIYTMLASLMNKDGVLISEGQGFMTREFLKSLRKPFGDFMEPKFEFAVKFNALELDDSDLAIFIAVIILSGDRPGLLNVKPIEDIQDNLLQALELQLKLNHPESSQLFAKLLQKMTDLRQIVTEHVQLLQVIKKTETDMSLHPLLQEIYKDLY
In words: PPAR-gamma transactivation assay (GAL4 chimera, luciferase reporter) in CV-1 cells.
Text: as §1, §2

Turning to `C[C@@H]1[C@H](C)N(c2ccc(C(F)(F)F)cn2)CCN1S(=O)(=O)c1ccc2scc(CC(=O)O)c2c1` (stereo in doubt) [Example 87, {5-[2,3-Dimethyl-4-(5-trifluoromethyl-pyridin-2-yl)-piperazine-1-sulfonyl]-benzo[b]thiophen-3-yl}-acetic acid], the results for the EC50 at PPAR-alpha, at PPAR-delta and on PPAR-gamma were 5 to 100 µM, less than 5 µM and less than 5 µM, respectively.
In the case of `O=C(O)CC1Cc2ccc(S(=O)(=O)N3CCN(c4ccc(C(F)(F)F)cc4)CC3)cc2C1` (stereo not drawn) [Example 1, {5-[4-(4-trifluoromethylphenyl)-piperazine-1-sulfonyl]-indan-2-yl}-acetic acid], the EC50 on PPAR-alpha, at PPAR-delta and at PPAR-gamma was 5 to 100 µM in each case.
As for `O=C(O)CC1Cc2cccc(S(=O)(=O)N3CCN(c4ccc(C(F)(F)F)cc4)CC3)c2C1` (stereo not drawn) [Example 2, {4-[4-(4-trifluoromethyl-phenyl)-piperazine-1-sulfonyl]-indan-2-yl}-acetic acid], the EC50 at PPAR-alpha is more than 100 µM; at PPAR-delta, less than 5 µM; at PPAR-gamma, 5 to 100 µM.
Take `O=C(O)CC1Cc2ccc(S(=O)(=O)N3CCN(c4ccc(Cl)c(Cl)c4)CC3)cc2C1` (stereo not drawn) [Example 3, {5-[4-(3,4-dichlorophenyl)-piperazine-1-sulfonyl]-indan-2-yl}-acetic acid]: the EC50 on PPAR-alpha, at PPAR-delta and on PPAR-gamma was 5 to 100 µM each time.
In the case of `O=C(O)CC1Cc2cccc(S(=O)(=O)N3CCN(c4ccc(Cl)c(Cl)c4)CC3)c2C1` (stereo not drawn) [Example 4, {4-[4-(3,4-dichlorophenyl)-piperazine-1-sulfonyl]-indan-2-yl}-acetic acid], the EC50 on PPAR-alpha is more than 100 µM; on PPAR-delta, 5 to 100 µM; on PPAR-gamma, more than 100 µM.
As for `O=C(O)C1Cc2ccc(S(=O)(=O)N3CCN(c4ccc(C(F)(F)F)cc4)CC3)cc2C1` (stereo not drawn) [Example 5, 5-[4-(4-trifluoromethyl-phenyl)-piperazine-1-sulfonyl]-indan-2-carboxylic acid], the EC50 at PPAR-alpha was 5 to 100 µM; at PPAR-delta, less than 5 µM; on PPAR-gamma it was 5 to 100 µM.
As for `O=C(O)C1Cc2cccc(S(=O)(=O)N3CCN(c4ccc(C(F)(F)F)cc4)CC3)c2C1` (stereo not drawn) [Example 6, 4-[4-(4-trifluoromethyl-phenyl)-piperazine-1-sulfonyl]-indan-2-carboxylic acid], the 50% effective concentration (EC50) was more than 100 µM on PPAR-alpha, less than 5 µM on PPAR-delta and less than 5 µM at PPAR-gamma.
As to `O=C(O)C1Cc2ccc(S(=O)(=O)N3CCN(c4ccc(Cl)c(Cl)c4)CC3)cc2C1` (stereo not drawn) [Example 7, 5-[4-(3,4-dichlorophenyl)-piperazine-1-sulfonyl]-indan-2-carboxylic acid], the EC50 on PPAR-alpha was 5 to 100 µM; at PPAR-delta, less than 5 µM; at PPAR-gamma, 5 to 100 µM.
Take `O=C(O)C1Cc2cccc(S(=O)(=O)N3CCN(c4ccc(Cl)c(Cl)c4)CC3)c2C1` (stereo not drawn) [Example 8, 4-[4-(3,4-dichlorophenyl)-piperazine-1-sulfonyl]-indan-2-carboxylic acid]: the EC50 at PPAR-alpha is 5 to 100 µM; at PPAR-delta, less than 5 µM; on PPAR-gamma, less than 5 µM.
In the case of `O=C(O)C1Cc2ccc(S(=O)(=O)N3CCN(c4ccc(C(F)(F)F)cn4)CC3)cc2C1` (stereo not drawn) [Example 9], the EC50 at PPAR-alpha is 5 to 100 µM; on PPAR-delta it was less than 5 µM; at PPAR-gamma, 5 to 100 µM.
Turning to `CC1(C(=O)O)Cc2ccc(S(=O)(=O)N3CCN(c4ccc(C(F)(F)F)cn4)CC3)cc2C1` (stereo not drawn) [Example 13, 2-methyl-5-[4-(5-trifluoromethyl-pyridin-2-yl)-piperazine-1-sulfonyl]-indan-2-carboxylic acid], the EC50 is 5 to 100 µM at PPAR-alpha, less than 5 µM on PPAR-delta and 5 to 100 µM on PPAR-gamma.
Consider `CC1(C(=O)O)Cc2cccc(S(=O)(=O)N3CCN(c4ccc(C(F)(F)F)cn4)CC3)c2C1` (stereo not drawn) [Example 14, 2-methyl-4-[4-(5-trifluoromethyl-pyridin-2-yl)-piperazine-1-sulfonyl]-indan-2-carboxylic acid], for which the EC50 at PPAR-alpha is more than 100 µM; at PPAR-delta, 5 to 100 µM; on PPAR-gamma, 5 to 100 µM.
Take `O=C(O)C1Cc2ccc(S(=O)(=O)N3CCN(c4cccc(C(F)(F)F)c4)CC3)cc2C1` (stereo not drawn) [Example 15, 5-[4-(3-trifluoromethyl-phenyl)-piperazine-1-sulfonyl]-indan-2-carboxylic acid]: the EC50 on PPAR-alpha, on PPAR-delta and on PPAR-gamma was 5 to 100 µM each time.
As to `O=C(O)C1Cc2cccc(S(=O)(=O)N3CCN(c4cccc(C(F)(F)F)c4)CC3)c2C1` (stereo not drawn) [Example 16, 4-[4-(3-trifluoromethyl-phenyl)-piperazine-1-sulfonyl]-indan-2-carboxylic acid], the figures for the EC50 on PPAR-alpha, on PPAR-delta and at PPAR-gamma were 5 to 100 µM, less than 5 µM and 5 to 100 µM, respectively.
Take `O=C(O)C1Cc2ccc(S(=O)(=O)N3CC=C(c4ccc(C(F)(F)F)cc4)CC3)cc2C1` (stereo not drawn) [Example 17, 5-[4-(4-trifluoromethyl-phenyl)-3,6-dihydro-2H-pyridine-1-sulfonyl]-indan-2-carboxylic acid]: the EC50 on PPAR-alpha, at PPAR-delta and on PPAR-gamma was 5 to 100 µM in each case.
Consider `O=C(O)C1Cc2cccc(S(=O)(=O)N3CC=C(c4ccc(C(F)(F)F)cc4)CC3)c2C1` (stereo not drawn) [Example 18, 4-[4-(4-trifluoromethyl-phenyl)-3,6-dihydro-2H-pyridine-1-sulfonyl]-indan-2-carboxylic acid], for which the EC50 was 5 to 100 µM at PPAR-alpha, less than 5 µM at PPAR-delta and 5 to 100 µM at PPAR-gamma.
With `O=C(O)C1CCc2ccc(S(=O)(=O)N3CCN(c4ccc(C(F)(F)F)cc4)CC3)cc21` (stereo not drawn) [Example 19, 6-[4-(4-trifluoromethyl-phenyl)-piperazine-1-sulfonyl]-indan-1-carboxylic acid], the EC50 at PPAR-alpha, on PPAR-delta and on PPAR-gamma was less than 5 µM each time.
`O=C(O)C1CCc2ccc(S(=O)(=O)N3CCN(c4ccc(C(F)(F)F)cn4)CC3)cc21` (stereo not drawn) [Example 20, 6-[4-(5-trifluoromethyl-pyridin-2-yl)-piperazine-1-sulfonyl]-indan-1-carboxylic acid]: the EC50 on PPAR-alpha, at PPAR-delta and on PPAR-gamma was less than 5 µM each time.
For `O=C(O)C1CCc2ccc(S(=O)(=O)N3CCN(c4ccc5c(c4)OCO5)CC3)cc21` (stereo not drawn) [Example 21, 6-(4-Benzo[1,3]dioxol-5-yl-piperazine-1-sulfonyl)-indan-1-carboxylic acid], the EC50 on PPAR-alpha, on PPAR-delta and at PPAR-gamma was 5 to 100 µM throughout.
